Source: patent US8088623B2, “Dominant selection marker for the transformation of fungi” (priority 2003, dated 2012)
Converted amounts (≈) assume the structure as drawn.

Key:
[1] = tested on: Pichia pastoris strain GS115; test: Soraphen A sensitivity of recipient strain GS115 on MM plates; type: cell-based; conditions: point and surface inoculation, 30° C., six days
Method: Two methods were used to determine the concentration of Soraphen A inhibitory to the growth of P. pastoris GS115. On the one hand MM plates containing 0 to 0.1 μg/ml Soraphen A were locally inoculated with 10^6 to 10^2 cells. On the other hand 5000 cells were streaked onto such plates. Inokulations were incubated in duplicate at 30° C. for six days; 100 μl of 100% methanol was added daily to the lid of the inverted plates.

[2] = tested on: MF-ACC purified from Ustilago maydis; conditions: cited from earlier work
[3] = tested on: Pichia pastoris transformant HWA4; test: Soraphen A sensitivity of transformant HWA4 (accA-D) on MM plates; type: cell-based; conditions: 30° C., six days
Method: (§1) Transformation of spheroplasts was carried out with 10 μg of Sal I-linearized plasmid pAO815-ACC3 or pAO815-ACC4 following the manufacturer's instructions. Transformants were selected on RDB plates and in a second selection round the obtained histidine prototroph clones were tested for Soraphen A sensitivity on MM plates containing Soraphen A (0-0.1 μg/ml).

Mucor hiemalis = conditions: cited from earlier work
[4] = tested on: acetyl-CoA carboxylase (ACC) of yeast and filamentous fungi; conditions: cited from earlier work
bacteria or prokaryotes = conditions: cited from earlier work
Ustilago zeae = conditions: cited from earlier work
[5] = tested on: filamentous fungi and yeasts; conditions: growth of numerous filamentous fungi and yeasts; cited from earlier work
[6] = tested on: MF-ACC purified from rat liver; conditions: cited from earlier work
MS-ACC from E. coli = biological target: T1, MS-ACC from E. coli (Escherichia coli, UniProt P24182); test: Sensitivity of prokaryotic MS-ACC to inhibition
T1 construct: expressed in transfected cells; host or cells: Pichia pastoris GS115 transformed with pAO815-ACC4 (strain HWA4)

[7] = tested on: Pichia pastoris transformant HWA3p; conditions: MM plates, 30° C., six days
Method: For transformation by electroporation, 3-12 μg of Sal I-linearized plasmid pPIC3.5K-BCCP was mixed with the competent cells and pulsed in 0.1 cm electroporation cuvettes at 1.5 kV, 25 μF, and 200Ω using a Gene Pulser (Bio-Rad). Immediately after the pulse, 1 ml of 1 M sorbitol was added to the cuvette and the cells were incubated for regeneration for 1 hour at room temperature. The cell suspension was aliquoted into two sterile Eppendorf tubes, 0.5 ml of YPD medium or MM medium was added, respectively, and the cells were incubated for 3 more hours at room temperature thereby being shaked. 50-200 μl of the aliquotes in YPD were spread on YPD-G418 plates to select G418 resistant transformants, whereas aliquots in MM medium were spread on MM-agar containing 0.02 μg/ml Soraphen A.
Histidine prototrophic or G418 resistant transformants were grown overnight in 20 ml MM medium. The cells were harvested by centrifugation and spotted onto MM plates containing different concentrations of Soraphen A (0-0.1 μg/ml). Duplicated plates were incubated at 30° C. for six days under daily addition of methanol.

[8] = tested on: Pichia pastoris transformant HWA3; test: Soraphen A sensitivity of transformant HWA3 (accA, accC, accD) on MM plates; type: cell-based; conditions: 30° C., six days
Method: as §1

CO[C@H]1CCCC[C@@H](c2ccccc2)OC(=O)[C@@H](C)[C@@]2(O)O[C@H]([C@@H](C)[C@H](O)[C@H]2OC)[C@@H](C)/C=C/[C@H]1OC [Soraphen A]
Soraphen A concentration leading to complete inhibition of growth [1]: ≤ 0.02 µg/mL | inhibition of MF-ACC activity in vitro [2]: inhibit | Soraphen A concentration not inhibiting growth (undiminished growth) [3]: > 0.1 µg/mL | MIC value (Mucor hiemalis): 0.03 µg/mL (≈ 0.0576 µM) | inhibition of acetyl-CoA carboxylase (ACC) activity [4]: inhibits | sensitivity to Soraphen (bacteria or prokaryotes): generally not sensitive | MIC value (Ustilago zeae): 4 µg/mL (≈ 7.68 µM) | MIC values [5]: below 1 ug/ml | inhibition of MF-ACC activity in vitro [6]: inhibit | sensitivity of MS-ACC to inhibition by Soraphen A (MS-ACC from E. coli): insensitive | Soraphen A concentration up to which resistance is fully developed [7]: > 0.1 µg/mL | Soraphen A concentration giving no growth [8]: ≤ 0.02 µg/mL
